Source: US6831075B2, “Heterocyclic substituted pyrazolones” (Cephalon, Inc., priority 1999, dated 2004)

Legend:
Format in all cases: biochemical
[1] = biological target: T1, recombinant human baculovirus-expressed VEGFR1 cytoplasmic domain (Homo sapiens, UniProt P17948); assay: VEGFR1 kinase inhibition assay (ELISA-based, time-resolved fluorescence); conditions: 1 uM compound; 30 μM ATP
T1 construct: recombinant human baculovirus-expressed VEGFR1 cytoplasmic domain; host or cells: baculovirus expression system
T1 sequence (P17948 781-1338 limits assumed): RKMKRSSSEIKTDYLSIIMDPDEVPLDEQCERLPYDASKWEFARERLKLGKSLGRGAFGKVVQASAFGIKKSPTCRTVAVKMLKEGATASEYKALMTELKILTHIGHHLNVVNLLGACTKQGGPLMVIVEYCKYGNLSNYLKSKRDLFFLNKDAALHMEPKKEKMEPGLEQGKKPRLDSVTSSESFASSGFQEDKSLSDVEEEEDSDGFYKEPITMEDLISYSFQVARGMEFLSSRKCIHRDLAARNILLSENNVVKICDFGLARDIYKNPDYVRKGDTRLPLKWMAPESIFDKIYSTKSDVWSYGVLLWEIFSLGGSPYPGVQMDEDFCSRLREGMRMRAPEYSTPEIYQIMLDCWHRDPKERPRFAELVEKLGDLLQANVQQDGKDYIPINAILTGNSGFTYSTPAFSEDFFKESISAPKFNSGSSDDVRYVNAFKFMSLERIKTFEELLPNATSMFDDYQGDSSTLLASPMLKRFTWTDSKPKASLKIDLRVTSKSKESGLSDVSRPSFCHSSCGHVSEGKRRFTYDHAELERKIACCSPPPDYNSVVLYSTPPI
Experimental: Inhibition of Vascular Endothelial Growth Factor Receptor-1 Kinase Activity
The VEGFR1 kinase activity assay utilizes an ELISA-based format in a 96-well FluoroNUNC Maxisorp plate with a time-resolved fluorescence readout. The plate was coated with 100 μl/well of substrate solution (recombinant human PLC-γ/GST) at a concentration of 40 μg/ml in Tris buffered saline (TBS). The VEGFR1 activity was assayed in 100-μl assay micture containing 50 mM HEPES (pH 7.4), 30 μM ATP, 10 mM MnCl2, 0.1% BSA, 2% DMSO, and 300 ng/ml prephosphorylated recombinant human baculovirus-expressed VEGFR1 cytoplasmic domain. Compounds were screened for inhibition of the VEGFR1 kinase activity at a concentration of 1 μM. The kinase reaction was allowed to proceed at 37° C. for 15 minutes. The detection antibody, europium-labeled anti-phosphotyrosine antibody (Wallac #CR04-100), was added at 1:5000 dilution in block buffer (3% BSA in TBST). After a 1-hour incubation at 37° C., 100 μl of enhancement solution (Wallac #1244-105) was added and the plate was gently agitated. After 5 min, the fluorescence of the resulting solution was measured using the BMG Fluostar (Model # 403).

[2] = biological target: T2, recombinant human baculovirus-expressed FGFR1 cytoplasmic domain (Homo sapiens, UniProt P11362); assay: FGFR1 kinase inhibition assay (ELISA-based, time-resolved fluorescence); conditions: 1 uM compound; 20 μM ATP
T2 construct: recombinant human baculovirus-expressed FGFR1 cytoplasmic domain; host or cells: baculovirus expression system
T2 sequence (P11362 398-822 limits assumed): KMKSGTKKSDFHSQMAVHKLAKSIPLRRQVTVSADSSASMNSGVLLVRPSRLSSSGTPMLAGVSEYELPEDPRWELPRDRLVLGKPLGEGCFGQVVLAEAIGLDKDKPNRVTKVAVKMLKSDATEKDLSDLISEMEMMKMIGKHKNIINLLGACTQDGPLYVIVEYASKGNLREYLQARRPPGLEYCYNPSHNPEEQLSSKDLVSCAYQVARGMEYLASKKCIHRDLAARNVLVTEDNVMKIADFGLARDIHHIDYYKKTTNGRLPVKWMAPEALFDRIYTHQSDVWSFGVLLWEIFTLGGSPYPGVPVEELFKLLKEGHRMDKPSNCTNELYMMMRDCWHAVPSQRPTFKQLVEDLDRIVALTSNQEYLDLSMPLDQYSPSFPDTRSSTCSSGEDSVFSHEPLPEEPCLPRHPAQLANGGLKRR
Experimental: Inhibition of Fibroblast Growth Factor Receptor-1 (FGFR1) Kinase Activity
The FGFR1 kinase activity was measured using an ELISA-based format in a 96-well FluoroNUNC Maxisorp plate with a time-resolved fluorescence readout as described for trkA kinase. The plate was coated with 100 μl/well of substrate solution (recombinant human PLC-γ/GST) at a concentration of 10 μg/ml in Tris buffered saline (TBS). The FDGFR1 activity was assayed in 100-μl assay micture containing 50 mM HEPES (pH 7.4), 20 μM ATP, 10 mM MnCl2, 0.1% BSA, 2% DMSO, and 15 ng/ml recombinant human baculovirus-expressed FGFR1 cytoplasmic domain (prephosphorylated prior to use). Compounds were screened for inhibition of the FGFR1 kinase activity at a conentration of 1 μM. The kinase reaction was allowed to proceed at 37° C. for 15 minutes. The detection antibody, europium-labeled anti-phosphotyrosine antibody (Wallace #CR04-100), was added at 1:5000 dilution in block buffer (3% BSA in TBST). After a 1-hour incubation at 37° C., 100 μl of enhancement solution (Wallac #1244-105) and the plate was gently agitated. After 5 min, the fluorescence of the resulting solutions measured using the BMG Fluostar (Model # 403).

[3] = biological target: T3, baculovirus-expressed human trkA cytoplasmic domain (Homo sapiens, UniProt P04629); assay: trkA tyrosine kinase inhibition assay (ELISA-based); conditions: 1 uM compound; 40 μM ATP
T3 construct: baculovirus-expressed human trkA cytoplasmic domain; host or cells: baculovirus expression system
T3 sequence (P04629 440-796 limits assumed): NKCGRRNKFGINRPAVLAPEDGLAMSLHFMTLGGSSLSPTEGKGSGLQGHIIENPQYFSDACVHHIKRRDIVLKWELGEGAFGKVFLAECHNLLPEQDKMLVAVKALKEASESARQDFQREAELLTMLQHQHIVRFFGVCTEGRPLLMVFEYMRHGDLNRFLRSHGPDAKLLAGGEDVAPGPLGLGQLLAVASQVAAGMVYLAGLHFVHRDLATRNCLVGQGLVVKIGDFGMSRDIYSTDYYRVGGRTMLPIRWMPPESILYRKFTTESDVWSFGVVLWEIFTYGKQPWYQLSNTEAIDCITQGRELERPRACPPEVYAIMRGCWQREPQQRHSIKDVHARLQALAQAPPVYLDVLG
Experimental: Inhibition of trkA Tyrosine Kinase Activity
Selected heterocyclic substituted pyrazolones were tested for their ability to inhibit the kinase activity of baculovirus-expressed human trkA cytoplasmic domain using an ELISA-based assay as previously described (Angeles et al., Anal. Biochem. 236: 49-55, 1996). Briefly, a 96-well microtiter plate was coated with substrate solution (recombinant human phospholipase C-γl/glutathione S-transferase fusion protein (Rotin et al., EMBO J., 11: 559-567, 1992). Inhibition studies were performed in 100 μl assay mixtures containing 50 mM Hepes, pH 7.4, 40 μM ATP, 10 mM MnCl2, 0.1% BSA, 2% DMSO, and various concentrations of inhibitor. The reaction was initiated by addition of trkA kinase and allowed to proceed for 15 minutes at 37° C. An antibody to phosphotyrosine (UBI) was then added, followed by a secondary enzyme-conjugated antibody, alkaline phosphatase-labelled goat anti-mouse IgG (Bio-Rad). The activity of the bound enzyme was measured via an amplified detection system (Gibco-BRL). Inhibition data were analyzed using the sigmoidal dose-response (variable slope) equation in GraphPad Prism.

baculoviral GST-MLK1KD = biological target: T4, baculoviral GST-MLK1KD (Homo sapiens, UniProt P80192); assay: Mixed Lineage Kinase-1 inhibition assay (Millipore Multiscreen TCA in-plate, 32P); conditions: 1 uM compound; 60 μM ATP
T4 construct: 1 μg/ml of baculoviral GST-MLK1KD; GST (N); host or cells: baculovirus expression system
T4 sequence (P80192 144-412 limits assumed): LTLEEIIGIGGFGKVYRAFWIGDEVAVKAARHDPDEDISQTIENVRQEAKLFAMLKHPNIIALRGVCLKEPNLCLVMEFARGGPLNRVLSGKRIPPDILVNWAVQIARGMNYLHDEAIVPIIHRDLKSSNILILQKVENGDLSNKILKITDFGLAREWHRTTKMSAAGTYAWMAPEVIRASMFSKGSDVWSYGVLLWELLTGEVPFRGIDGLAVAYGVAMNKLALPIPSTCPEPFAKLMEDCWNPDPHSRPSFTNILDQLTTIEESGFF
Experimental: Inhibition of Mixed Lineage Kinase-1 Activity
The kinase activity of MLK1 was assessed using the Millipore Multiscreen TCA “in-plate” format as described for protein kinase C (Pitt & Lee, J. Biomol. Screening, 1: 47-51, 1996). Briefly, each 50-μl assay mixture contained 20 mM Hepes, pH 7.0, 1 mM EGTA, 10 mM MgCl2, 1 mM DTT, 25 mM β-glycerophosphate, 60 μM ATP, 0.25 μCi [γ-^32P]ATP, 0.1% BSA, 500 μg/ml myelin basic protein (UBI #13-104), 2% DMSO, 1 μM of test compound, and 1 μg/ml of baculoviral GST-MLK1KD. Samples were incubated for 15 min at 37° C. The reaction was stopped by adding ice cold 50% TCA and the protein were allowed to precipitate for 30 min at 4° C. The plates were then washed with ice cold 25% TCA. Supermix scintillation cocktail was added, and the plates were allowed to equilibrate for 1-2 hours prior to counting using the Wallac MicroBeta 1450 PLUS scintillation counter.

Structure (SMILES) | VEGFR-1 kinase % inhibition @ 1 uM [1] [%] | FGFR1 % inhibition @ 1 uM [2] [%] | trkA % inhibition @ 1 uM [3] [%] | MLK-1 Kinase % inhibition @ 1 uM (baculoviral GST-MLK1KD) [%]
Cc1cc(C)c(C=C2C(=O)NN=C2c2ccoc2)[nH]1 [Compound 1] | 35 | 6 | 24 | 12
Cc1cc(C)c(C=C2C(=O)NN=C2C2c3ccccc3Oc3ccccc32)[nH]1 [Compound 2] | 9 | 33 | 39 | −8
Cc1cc(C)c(C=C2C(=O)NN=C2c2ccncc2)[nH]1 [Compound 3] | 22 | 29 | 60 | 2
O=C1NN=C(c2ccoc2)C1=CC=C(c1ccccc1)c1ccccc1 [Compound 4] | 20 | 20 | 53 | 9
CCc1c(C=C2C(=O)NN=C2c2ccoc2)[nH]c(C(=O)OCc2ccccc2)c1C [Compound 5] | 10 | −2 | 2 | 14
Cc1c(I)[nH]c(C=C2C(=O)NN=C2c2ccoc2)c1I [Compound 6] | 14 | 20 | 31 | 25
CCOC(=O)CCc1c(C(=O)OCC)[nH]c(C=C2C(=O)NN=C2c2ccoc2)c1CC(=O)OCC [Compound 7] | 13 | 28 | 33 | 9
Cc1[nH]c(C=C2C(=O)NN=C2c2ccoc2)c(Br)c1Br [Compound 8] | 21 | 24 | 20 | 15
O=C1NN=C(c2ccoc2)C1=Cc1c[nH]c2ccccc12 [Compound 9] | 51 | 17 | 41 | 22
Cc1cc(C)c(C=C2C(=O)NN=C2c2cccnc2)[nH]1 [Compound 10] | 41 | 14 | 26 | 22
COc1ccc2[nH]cc(C=C3C(=O)NN=C3c3ccoc3)c2c1 [Compound 11] | 23 | 24 | 65 | 21
O=C1NN=C(c2ccoc2)C1=Cc1ccc[nH]1 [Compound 12] | 29 | 39 | 44 | 27
Cc1nc(C)c(C2=NNC(=O)C2=Cc2c[nH]c3ccccc23)s1 [Compound 13] | 39 | 30 | 45 | 10
Cc1cc(C)c(C=C2C(=O)NN=C2c2sc(C)nc2C)[nH]1 [Compound 14] | 8 | 22 | 35 | 8
O=C1NN=C(c2ccoc2)C1=Cc1ncc[nH]1 [Compound 15] | 12 | 10 | 15 | −3
COC(=O)c1ccc2[nH]cc(C=C3C(=O)NN=C3c3ccoc3)c2c1 [Compound 16] | 18 | 1 | 29 | 18
O=C1NN=C(c2ccoc2)C1=Cc1c[nH]c2ccc(Cl)cc12 [Compound 17] | 17 | 13 | 52 | 6
O=C1NN=C(c2ccoc2)C1=Cc1c[nH]c2cccc(OCc3ccccc3)c12 [Compound 18] | 9 | 22 | 70 | 14
O=C1NN=C(c2ccoc2)C1=Cc1c[nH]c2ccc(F)cc12 [Compound 19] | 30 | 23 | 45 | 4
Cn1cc(C=C2C(=O)NN=C2c2ccoc2)c2ccccc21 [Compound 20] | 45 | 27 | 60 | 21
O=C1NN=C(c2ccoc2)C1=Cc1c[nH]c2ccc(OCc3ccccc3)cc12 [Compound 21] | 0 | 15 | 56 | 4
Cc1cccc2c(C=C3C(=O)NN=C3c3ccoc3)c[nH]c12 [Compound 22] | 23 | 22 | 44 | 1
Cc1cc(C)c(C=C2C(=O)NN=C2c2ccn(C)c2)[nH]1 [Compound 23] | 2 | 31 | 26 | 30
Cn1ccc(C2=NNC(=O)C2=Cc2c[nH]c3ccccc23)c1 [Compound 24] | 39 | 39 | 22 | 10
